The test system of one experiment is GSK-3. In words: GSK-3 inhibition, isoform not stated. Conditions: no activity defined as an IC50 >10μM. The experiment is classed as biochemical.
The next experiment concerns MAPK5/PRAK. To be noted: at 2μM; cited from earlier work.
The subject of experiment [1] is other kinases tested having a lysine at a position comparable to Arg141 in GSK-3β. To be noted: kinases with lysine at position comparable to Arg141; at 2 μM; cited from earlier work.
The next experiment deals with broad kinase screen. Conditions: cited from earlier work.

Bounds are passed on as bounds.

What is called % inhibition is the change of the read-out against control, counted positive when it falls.

Turning to `OC1(c2ccccc2)CSC(=S)N1Cc1ccccc1` (stereo not drawn) [Compound 3a], the “activity (GSK-3 inhibition, in words)” value in the experiment with GSK-3 is given as “no activity”.

Turning to `OC1(c2ccccc2)CSC(=S)N1Cc1ccncc1` (stereo not drawn) [Compound 3c], the “activity (GSK-3 inhibition, in words)” value in the experiment with GSK-3 is “excellent activity”. In addition, the results for the “% inhibition” value (with MAPK5/PRAK; in experiment [1]) were 60% and less than 30%, respectively. Further, the “kinase selectivity (in words)” value with broad kinase screen was “the only kinases significantly inhibited by 3c were GSK-3β and GSK-3α”.

Turning to `OC1(c2ccccc2)CSC(=S)N1Cc1ccccn1` (stereo not drawn) [Compound 3d], the “activity (GSK-3 inhibition, in words)” value in the experiment with GSK-3 is on record as “no activity”.
